Results as given in PubChem BioAssay (NCI).
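At the GI50, growth is halved. TGI: total growth inhibition.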

Assays:
Assay in all cases: growth of human tumour cells (NCI), 384-well format
[1] = test system: SK-MEL-28 melanoma
[2] = test system: CCRF-CEM leukemia
[3] = test system: HCT-15 colon
[4] = test system: SNB-75 CNS
[5] = test system: SNB-19 CNS
[6] = test system: RPMI-8226 leukemia
[7] = test system: MDA-MB-468 breast
[8] = test system: UACC-62 melanoma
[9] = test system: HCC-2998 colon
[10] = test system: SF-268 CNS
[11] = test system: NCI-H460 NSCLC
[12] = test system: DU-145 prostate
[13] = test system: MDA-MB-231 breast
[14] = test system: MCF7 breast
[15] = test system: BT-549 breast
[16] = test system: HS 578T breast
[17] = test system: MOLT-4 leukemia
[18] = test system: LOX IMVI melanoma
[19] = test system: ACHN renal
[20] = test system: COLO 205 colon
[21] = test system: HL-60(TB) leukemia
[22] = test system: NCI-H522 lung
[23] = test system: UACC-257 melanoma
[24] = test system: SF-295 CNS
[25] = test system: EKVX NSCLC
[26] = test system: K-562 leukemia
[27] = test system: OVCAR-5 ovarian
[28] = test system: M14 melanoma
[29] = test system: SW-620 colon
[30] = test system: SK-MEL-5 melanoma
[31] = test system: OVCAR-4 ovarian
[32] = test system: NCI/ADR-RES ovarian
[33] = test system: TK-10 renal
[34] = test system: SF-539 CNS
[35] = test system: OVCAR-3 ovarian
[36] = test system: MDA-MB-435 melanoma
[37] = test system: NCI-H322M lung
[38] = test system: MALME-3M melanoma
[39] = test system: HT29 colon
[40] = test system: RXF 393 renal
[41] = test system: A549 NSCLC
[42] = test system: T-47D breast
[43] = test system: A498 renal
[44] = test system: 786-0 renal
[45] = test system: NCI-H23 lung
[46] = test system: UO-31 renal
[47] = test system: SR leukemia
[48] = test system: KM12 colon
[49] = test system: SK-OV-3 ovarian
[50] = test system: OVCAR-8 ovarian
[51] = test system: IGROV1 ovarian
[52] = test system: SN12C renal
[53] = test system: HOP-62 NSCLC
[54] = test system: NCI-H226 lung
[55] = test system: PC-3 prostate
[56] = test system: HOP-92 NSCLC
[57] = test system: CAKI-1 renal

## CC(=O)Nc1nc(C)c(-c2cc3c(c(S(C)(=O)=O)c2)C(=O)N([C@@H](C)C2CC2)C3)s1
[1]
  GI50: 22.8 µM
  TGI: > 100 µM
[2]
  GI50: 0.0269 µM
  TGI: 11.7 µM
[3]
  GI50: 28.6 µM
  TGI: 93.4 µM
[4]
  GI50: 28.6 µM
  TGI: > 100 µM
[5]
  GI50: 82.2 µM
  TGI: > 100 µM
[6]
  GI50: 19.9 µM
  TGI: 40.8 µM
[7]
  GI50: 15.5 µM
  TGI: 45 µM
[8]
  GI50: 29.1 µM
  TGI: > 100 µM
[9]
  GI50: 51.3 µM
  TGI: > 100 µM
[10]
  GI50: 34.7 µM
  TGI: > 100 µM
[11]
  GI50: 30 µM
  TGI: > 100 µM
[12]
  GI50: 34.9 µM
  TGI: > 100 µM
[13]
  GI50: 22.3 µM
  TGI: > 100 µM
[14]
  GI50: 24.6 µM
  TGI: > 100 µM
[15]
  GI50: 36.9 µM
  TGI: > 100 µM
[16]
  GI50: 17.5 µM
  TGI: 51.4 µM
[17]
  GI50: 17.5 µM
  TGI: 33.1 µM
[18]
  GI50: 28.2 µM
  TGI: 86.3 µM
[19]
  GI50: 31 µM
  TGI: > 100 µM
[20]
  GI50: 38.8 µM
  TGI: > 100 µM
[21]
  GI50: 13 µM
  TGI: 33.3 µM
[22]
  GI50: 25.7 µM
  TGI: 78.2 µM
[23]
  GI50: 27.2 µM
  TGI: > 100 µM
[24]
  GI50: 27.9 µM
  TGI: > 100 µM
[25]
  GI50: 42.1 µM
  TGI: > 100 µM
[26]
  GI50: 29.1 µM
  TGI: > 100 µM
[27]
  GI50: 31.7 µM
  TGI: > 100 µM
[28]
  GI50: 31.7 µM
  TGI: > 100 µM
[29]
  GI50: > 100 µM
  TGI: > 100 µM
[30]
  GI50: 15 µM
  TGI: 41.4 µM
[31]
  GI50: 20.8 µM
  TGI: 77 µM
[32]
  GI50: 77.4 µM
  TGI: > 100 µM
[33]
  GI50: 31.8 µM
  TGI: > 100 µM
[34]
  GI50: 31.5 µM
  TGI: > 100 µM
[35]
  GI50: 26.5 µM
  TGI: > 100 µM
[36]
  GI50: 54.4 µM
  TGI: > 100 µM
[37]
  GI50: 30.3 µM
  TGI: > 100 µM
[38]
  GI50: 14.9 µM
  TGI: 57.1 µM
[39]
  GI50: 29.8 µM
  TGI: > 100 µM
[40]
  GI50: 30.9 µM
  TGI: > 100 µM
[41]
  GI50: 33.6 µM
  TGI: > 100 µM
[42]
  GI50: 6.04 µM
  TGI: 37.3 µM
[43]
  GI50: 19.3 µM
  TGI: 80.4 µM
[44]
  GI50: 34.7 µM
  TGI: > 100 µM
[45]
  GI50: 28.7 µM
  TGI: > 100 µM
[46]
  GI50: 31.6 µM
  TGI: > 100 µM
[47]
  GI50: 17.3 µM
  TGI: 43.8 µM
[48]
  GI50: 42.6 µM
  TGI: > 100 µM
[49]
  GI50: 19.3 µM
  TGI: 48.5 µM
[50]
  GI50: 48 µM
  TGI: > 100 µM
[51]
  GI50: 22.6 µM
  TGI: 54.8 µM
[52]
  GI50: 25.1 µM
  TGI: 91.3 µM
[53]
  GI50: 30.4 µM
  TGI: > 100 µM
[54]
  GI50: 35.7 µM
  TGI: > 100 µM
[55]
  GI50: 39.6 µM
  TGI: > 100 µM
[56]
  GI50: 32.1 µM
  TGI: > 100 µM
[57]
  GI50: 25.5 µM
  TGI: 77.6 µM
